This passage reports IC50 results from ChEMBL document CHEMBL3351659, “Amine-linked diquercitols as new α-glucosidase inhibitors” (Bioorg Med Chem Lett, 2014).

SMILES strings stand for the structures.

Assay [1] is described as follows: Inhibition of rat intestinal maltase using maltose substrate incubated for 10 mins.
The target in assay [2] is Sucrase-isomaltase, intestinal (Rattus norvegicus, UniProt P23739). The assay is described as follows: Inhibition of rat intestinal sucrase using sucrose substrate incubated for 10 mins.
Chain of Sucrase-isomaltase, intestinal (P23739 1-1013 limits assumed): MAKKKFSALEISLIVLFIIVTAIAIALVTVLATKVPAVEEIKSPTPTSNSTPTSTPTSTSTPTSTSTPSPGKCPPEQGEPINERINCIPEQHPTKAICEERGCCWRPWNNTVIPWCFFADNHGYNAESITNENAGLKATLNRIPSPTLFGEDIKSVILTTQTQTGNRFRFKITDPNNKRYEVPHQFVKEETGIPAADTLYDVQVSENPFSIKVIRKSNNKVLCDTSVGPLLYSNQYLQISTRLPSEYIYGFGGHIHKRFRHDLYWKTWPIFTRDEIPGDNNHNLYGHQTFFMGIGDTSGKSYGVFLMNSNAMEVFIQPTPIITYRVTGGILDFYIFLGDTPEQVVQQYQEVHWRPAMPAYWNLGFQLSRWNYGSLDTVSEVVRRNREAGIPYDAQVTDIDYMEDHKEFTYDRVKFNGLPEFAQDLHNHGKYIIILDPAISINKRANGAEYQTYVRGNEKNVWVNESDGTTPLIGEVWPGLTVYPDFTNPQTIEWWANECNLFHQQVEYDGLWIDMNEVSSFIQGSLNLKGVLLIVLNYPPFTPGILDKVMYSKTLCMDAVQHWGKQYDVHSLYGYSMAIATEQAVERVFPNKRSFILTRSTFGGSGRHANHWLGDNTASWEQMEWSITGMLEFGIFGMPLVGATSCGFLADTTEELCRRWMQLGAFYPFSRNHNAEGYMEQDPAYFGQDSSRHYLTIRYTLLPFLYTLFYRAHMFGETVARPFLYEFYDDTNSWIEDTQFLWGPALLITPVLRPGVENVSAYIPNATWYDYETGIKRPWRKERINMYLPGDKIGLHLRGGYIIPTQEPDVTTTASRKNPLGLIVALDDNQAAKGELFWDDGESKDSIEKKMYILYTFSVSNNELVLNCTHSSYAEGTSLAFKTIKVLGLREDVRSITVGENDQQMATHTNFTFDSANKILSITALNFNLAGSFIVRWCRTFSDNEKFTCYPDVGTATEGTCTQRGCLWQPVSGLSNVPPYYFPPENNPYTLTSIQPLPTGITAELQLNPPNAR
Chain of Sucrase-isomaltase, intestinal (P23739 1014-1841 limits assumed): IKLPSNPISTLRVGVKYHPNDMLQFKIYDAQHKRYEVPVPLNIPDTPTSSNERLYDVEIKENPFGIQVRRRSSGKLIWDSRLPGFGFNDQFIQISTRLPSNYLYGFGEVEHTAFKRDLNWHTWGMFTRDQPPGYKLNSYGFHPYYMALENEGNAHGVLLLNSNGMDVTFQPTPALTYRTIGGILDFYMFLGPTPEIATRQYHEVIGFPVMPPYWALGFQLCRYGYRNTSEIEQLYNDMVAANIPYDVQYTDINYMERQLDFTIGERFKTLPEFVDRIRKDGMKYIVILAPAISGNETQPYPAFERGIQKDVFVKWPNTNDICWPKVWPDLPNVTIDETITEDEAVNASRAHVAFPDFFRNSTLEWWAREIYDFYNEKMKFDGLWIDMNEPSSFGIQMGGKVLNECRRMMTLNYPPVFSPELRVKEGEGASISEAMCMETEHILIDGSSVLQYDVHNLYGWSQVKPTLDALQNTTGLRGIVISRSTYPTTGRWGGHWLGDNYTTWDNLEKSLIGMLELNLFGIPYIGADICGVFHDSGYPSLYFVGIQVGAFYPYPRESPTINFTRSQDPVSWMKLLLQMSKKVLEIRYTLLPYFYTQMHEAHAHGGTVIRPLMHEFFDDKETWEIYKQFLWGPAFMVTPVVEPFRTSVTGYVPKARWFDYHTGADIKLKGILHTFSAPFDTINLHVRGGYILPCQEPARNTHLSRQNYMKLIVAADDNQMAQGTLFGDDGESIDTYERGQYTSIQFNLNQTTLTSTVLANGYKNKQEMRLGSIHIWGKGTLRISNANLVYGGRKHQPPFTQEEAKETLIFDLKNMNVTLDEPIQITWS
A short description of assay [3]: Inhibition of Baker's yeast alpha-glucosidase pre-incubated for 10 mins before para-nitrophenyl-alpha-D-glucopyranoside substrate addition. Also noted: species or system Saccharomyces cerevisiae.
A short description of assay [4]: Inhibition of alpha-glucosidase (unknown origin). Further details: species or system Homo sapiens.

With `N[C@H]1C[C@@H](O)[C@H](O)[C@@H](O)[C@H]1O`, the 50% inhibitory concentration (IC50) amounted to 5.8 µM in assay [1], 7.3 µM in assay [2] and 2890 µM in assay [3]. In the same order, the values of `O[C@@H]1[C@@H](O)[C@H](O)C[C@H](N[C@H]2C[C@H](O)[C@@H](O)[C@H](O)[C@@H]2O)[C@@H]1O` are 3.6 µM, 4 µM and 40.1 µM. For `C[C@H]1O[C@H](O[C@H]2[C@H](O)[C@@H](O)[C@@H](O[C@H]3[C@H](O)[C@@H](O)C(O)O[C@@H]3CO)O[C@@H]2CO)[C@H](O)[C@@H](O)[C@@H]1N[C@H]1C=C(CO)[C@@H](O)[C@H](O)[C@H]1O` (some centres undefined) [ACARBOSE], the IC50 in assay [1] was 1.5 µM; in assay [3] it was 404 µM. Turning to `CC(=O)N([C@H]1[C@H](O)[C@H](O)[C@@H](O)[C@@H](O)[C@@H]1O)[C@H]1[C@H](O)[C@H](O)[C@@H](O)[C@@H](O)[C@@H]1O`, in assay [4], the 50% inhibitory concentration (IC50) worked out at 370 µM. Still for that read-out and setting: then `N[C@H]1[C@H](O)[C@H](O)[C@@H](O)[C@@H](O)[C@@H]1N[C@H]1[C@H](O)[C@H](O)[C@@H](O)[C@@H](O)[C@@H]1O`, with over 2000 µM. With `N[C@@H]1C[C@@H](O)[C@H](O)[C@@H](O)[C@H]1O`, the IC50 in assay [1] was 4.4 µM; in assay [2], 6.8 µM; in assay [3], 12.5 µM. Taken in the same sequence, the figures for `OC1CC(N[C@H]2C[C@@H](O)[C@H](O)[C@@H](O)[C@H]2O)[C@@H](O)[C@@H](O)[C@@H]1O` (single isomer, unassigned) were 3.1 µM, 3.7 µM and 32.3 µM. In turn, `CC(=O)N([C@H]1C=C[C@@H](O)[C@@H](O)[C@@H]1O)[C@H]1C=C[C@@H](O)[C@@H](O)[C@@H]1O` returned an IC50 in assay [4] of 1350 µM.

As for `O[C@H]1[C@H](O)[C@@H](N[C@H]2C=C[C@@H](O)[C@@H](O)[C@@H]2O)C=C[C@H]1O`, in assay [4], half-maximal inhibition (IC50) required 1400 µM. Molecule `O[C@@H]1[C@@H](O)[C@@H](O)[C@H](N[C@H]2[C@H](O)[C@H](O)[C@@H](O)[C@@H](O)[C@@H]2O)[C@@H](O)[C@@H]1O` gave a half-inhibitory concentration (IC50) in assay [4] of over 2000 µM.
